14 compounds from patent publication US20070179060A1, “6-(Poly-substituted aryl)-4-aminopicolinates and their use as herbicides” (priority 2006, published 2007) can be followed below.

Each structure is given as a SMILES string.

Series [1] relates to redroot pigweed (Amaranthus retroflexus). As to the kind of experiment: Preemergence herbicidal activity. The note with it: pre-emergent, after 20-22 days; for pest or weed control at 140 g/ha / % Control AMARE: 140 g ai/ha. Format: in vivo. The text has this:
(§1) Seeds of the desired test plant species were planted in a soil matrix prepared by mixing a loam soil (43 percent silt, 19 percent clay, and 38 percent sand, with a pH of about 8.1 and an organic matter content of about 1.5 percent) and sand in a 70 to 30 ratio. The soil matrix was contained in plastic pots with a surface area of 113 square centimeters. When required to ensure good germination and healthy plants, a fungicide treatment and/or other chemical or physical treatment was applied. […] Compound requirements are based upon a 12 mL application volume at a rate of 187 L/ha. Formulated compounds were applied to the plant material with an overhead Mandel track sprayer equipped with a […] nozzles calibrated to deliver 187 L/ha over an application area of 0.503 square meters at a spray height of 18 inches (43 cm) above the soil surface. Control plants were sprayed in the same manner with the solvent blank. The treated pots and control pots were placed in a greenhouse maintained with an approximate 15 hour photoperiod and temperatures of about 23-29° C. during the day and 22-28° C. during the night. Nutrients and water were added on a regular basis and supplemental lighting was provided with overhead metal halide 1000-watt lamps as necessary. The water was added by top-irrigation.

Series [2] deals with lambsquarter (Chenopodium album). As to the kind of experiment: Preemergence herbicidal activity. Format: in vivo. The note with it: pre-emergent, after 20-22 days; for pest or weed control at 140 g/ha / % Control CHEAL: 140 g ai/ha.
Text: as §1

Series [3] relates to velvetleaf (Abutilon theophrasti). As to the kind of experiment: Preemergence herbicidal activity. Format: in vivo. The note with it: pre-emergent, after 20-22 days; for pest or weed control at 140 g/ha / % Control ABUTH: 140 g ai/ha.
Text: as §1

The subject of series [4] is redroot pigweed (Amaranthus retroflexus). As to the kind of experiment: Postemergence herbicidal activity. Format: in vivo. The note with it: post-emergent, 140 g ai/ha, after 14 days; for pest or weed control at 140 g/ha: Amaranthus retroflexus, post-emergence, 336 h, read-out: % Control AMARE. An outline of the steps:
(§2)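 Compounds were applied postemergence by track sprayer delivering 187 L/ha, using a mixed organic/aqueous carrier containing crop oil concentrate and surfactant; solvent-blank sprays served as controls. Test plants were at the first to second true leaf stage after 7-21 days' greenhouse growth, were sub-irrigated after treatment, and were evaluated by probit analysis.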

Series [5] has as its system lambsquarter (Chenopodium album). As to the kind of experiment: Postemergence herbicidal activity. Format: in vivo. The note with it: post-emergent, 140 g ai/ha, after 14 days; for pest or weed control at 140 g/ha: Chenopodium album, post-emergence, 336 h, read-out: % Control CHEAL. An outline of the steps:
as §2

In series [6] the test system is velvetleaf (Abutilon theophrasti). As to the kind of experiment: Postemergence herbicidal activity. Format: in vivo. To be noted: post-emergent, 140 g ai/ha, after 14 days; for pest or weed control at 140 g/ha: Abutilon theophrasti, post-emergence, 336 h, read-out: % Control ABUTH. The method, boiled down: as §2
Where [7] appears, read: Amaranthus retroflexus, pre-emergence, 480 h, read-out: % Control AMARE.
[8] abbreviates: Chenopodium album, pre-emergence, 480 h, read-out: % Control CHEAL.
Setting [9] is: Abutilon theophrasti, pre-emergence, 480 h, read-out: % Control ABUTH.

Broadly, the melting point is the temperature, or range, at which the solid turns liquid. As to `COCc1c(Cl)ccc(-c2cc(N)c(Cl)c(C(=O)OC)n2)c1F` [Compound 3, 4-Amino-3-chloro-6-(4-chloro-2-fluoro-3-methoxymethylphenyl)pyridine-2-carboxylic acid methyl ester], the melting point lay within 116 to 117 °C. The pest or weed control at 140 g/ha in series [1] (setting [7]) came to 100%. Further, the pest or weed control at 140 g/ha in series [2] (setting [8]) amounted to 95%. The pest or weed control at 140 g/ha in series [3] (setting [9]) is 98%. In addition, in series [4], the pest or weed control at 140 g/ha amounted to 100%. Besides, the pest or weed control at 140 g/ha in series [5] is 80%. Further, the pest or weed control at 140 g/ha in series [6] stood at 100%.

The compound `COC(=O)c1nc(-c2ccc(Cl)c(OCC(F)F)c2Cl)cc(N)c1Cl` [Compound 10, 4-Amino-3-chloro-6-[2,4-dichloro-3-(2,2-difluoroethoxy)phenyl]pyridine-2-carboxylic acid methyl ester] came in with a melting point of 113 to 115 °C. Moreover, in series [1] (Amaranthus retroflexus, pre-emergence, 480 h, 280 g ai/ha, read-out: % Control AMARE), the pest or weed control at 280 g/ha was 50%. The pest or weed control at 280 g/ha in series [2] (Chenopodium album, pre-emergence, 480 h, 280 g ai/ha, read-out: % Control CHEAL) was 80%. Further, the pest or weed control at 280 g/ha in series [3] (Abutilon theophrasti, pre-emergence, 480 h, 280 g ai/ha, read-out: % Control ABUTH) worked out at 40%. Further, the pest or weed control at 140 g/ha in series [4] was found to be 100%. Besides, the pest or weed control at 140 g/ha in series [5] stood at 100%. In addition, in series [6], the pest or weed control at 140 g/ha was determined as 90%.

Compound `COC(=O)c1nc(-c2ccc3c(c2F)OCO3)c(F)c(N)c1Cl` [Compound 12, 4-Amino-3-chloro-5-fluoro-6-(2-fluoro-3,4-methylenedioxyphenyl)pyridine-2-carboxylic acid methyl ester] had a melting point of 151 to 152 °C. The pest or weed control at 140 g/ha in series [1] (setting [7]) turned out to be 100%. In addition, the pest or weed control at 140 g/ha in series [2] (setting [8]) worked out at 100%. Further, the pest or weed control at 140 g/ha in series [3] (setting [9]) stood at 100%. The pest or weed control at 140 g/ha in series [4] stood at 100%. Further, the pest or weed control at 140 g/ha in series [5] was found to be 100%. Besides, the pest or weed control at 140 g/ha in series [6] worked out at 100%.

`COC(=O)c1nc(-c2cc(OC)c(Cl)cc2F)c(F)c(N)c1Cl` [Compound 15, 4-Amino-3-chloro-5-fluoro-6-(4-chloro-2-fluoro-5-methoxyphenyl)pyridine-2-carboxylic acid methyl ester] had a melting point of 168 to 169 °C. For the same compound, in series [1] (setting [7]), the pest or weed control at 140 g/ha was found to be 100%. Further, in series [2] (setting [8]), the pest or weed control at 140 g/ha was 100%. Moreover, the pest or weed control at 140 g/ha in series [3] (setting [9]) was found to be 60%. In series [4], the pest or weed control at 140 g/ha was determined as 100%. Also, the pest or weed control at 140 g/ha in series [5] amounted to 100%. Besides, the pest or weed control at 140 g/ha in series [6] turned out to be 100%.

For `COC(=O)c1nc(-c2ccc(Cl)c(C)c2F)cc(N)c1Cl` [Compound 49, 4-Amino-3-chloro-6-(4-chloro-2-fluoro-3-methylphenyl)pyridine-2-carboxylic acid methyl ester], the melting point fell in the range of 116 to 118 °C. The pest or weed control at 140 g/ha in series [1] (setting [7]) worked out at 100%. Also, the pest or weed control at 140 g/ha in series [2] (setting [8]) was 99%. In addition, the pest or weed control at 140 g/ha in series [3] (setting [9]) came out at 100%. The pest or weed control at 140 g/ha in series [4] came out at 80%. Also, the pest or weed control at 140 g/ha in series [5] worked out at 90%. In addition, in series [6], the pest or weed control at 140 g/ha is 100%.

In the case of `CCc1c(Cl)ccc(-c2cc(N)c(Cl)c(C(=O)OC)n2)c1F` [Compound 64, 4-Amino-3-chloro-6-(4-chloro-3-ethyl-2-fluorophenyl)pyridine-2-carboxylic acid, methyl ester], the melting point was in the range of 120 to 122 °C. Moreover, the pest or weed control at 140 g/ha in series [1] (setting [7]) came out at 100%. Moreover, the pest or weed control at 140 g/ha in series [2] (setting [8]) came out at 100%. The pest or weed control at 140 g/ha in series [3] (setting [9]) was 80%. Moreover, the pest or weed control at 140 g/ha in series [4] is 100%. The pest or weed control at 140 g/ha in series [5] was 100%. Also, in series [6], the pest or weed control at 140 g/ha was 95%.

Take `COC(=O)c1nc(-c2ccc(Cl)c(C(=O)C(F)(F)F)c2F)cc(N)c1Cl` [Compound 82, 4-Amino-3-chloro-6-[4-chloro-2-fluoro-3-(2,2,2-trifluoroacetyl)phenyl]pyridine-2-carboxylic acid, methyl ester]: the pest or weed control at 140 g/ha came to 100% in series [1] (setting [7]); 100% in series [2] (setting [8]); 90% in series [3] (setting [9]); 100% in series [4]; 95% in series [5]; 100% in series [6].

Take `COC(=O)c1nc(-c2c(F)cc(C#N)c(OC)c2F)cc(N)c1Cl` [Compound 95, 4-amino-3-chloro-6-(4-cyano-2,6-difluoro-3-methoxyphenyl)pyridine-2-carboxylic acid, methyl ester]: the pest or weed control at 140 g/ha turned out to be 90% in series [1] (setting [7]); 90% in series [2] (setting [8]); 90% in series [3] (setting [9]); 85% in series [4]; 90% in series [5]; 100% in series [6].

As to `Nc1cc(-c2ccc(Cl)c(OCC(F)F)c2F)nc(C(=O)O)c1Cl` [Compound 96, 4-Amino-3-chloro-6-(4-chloro-2-fluoro-3-(2,2-difluoroethoxy)phenyl)pyridine-2-carboxylic acid], the pest or weed control at 140 g/ha was determined as 70% in series [1] (setting [7]); 40% in series [2] (setting [8]); 20% in series [3] (setting [9]); 100% in series [4]; 90% in series [5]; 50% in series [6].

Consider `CN(C)c1c(Cl)ccc(-c2cc(N)c(Cl)c(C(=O)O)n2)c1F` [Compound 112, 4-Amino-3-chloro-6-(4-chloro-3-dimethyamino-2-fluorophenyl)pyridine-2-carboxylic acid], for which the “% Control AMARE” value in series [1] and in series [4] was 100% throughout. Besides, the “% Control CHEAL” value in series [2] and in series [5] was 100% in each case. The “% Control ABUTH” value in series [3] and in series [6] was 100% in each case.

For the compound `COCCOc1c(Cl)ccc(-c2cc(N)c(Cl)c(C(=O)O)n2)c1F` [Compound 113, 4-Amino-3-chloro-6-(4-chloro-2-fluoro-3-methoxyethoxyphenyl)pyridine-2-carboxylic acid], the melting point was 169 to 170 °C (dec.). Also, the pest or weed control at 140 g/ha in series [1] (setting [7]) stood at 0%. Moreover, the pest or weed control at 140 g/ha in series [2] (setting [8]) was determined as 55%. In series [3] (setting [9]), the pest or weed control at 140 g/ha worked out at 0%.

In turn, `COc1cc(-c2nc(C(=O)O)c(Cl)c(N)c2F)c(F)cc1Cl` [Compound 122, 4-Amino-3-chloro-6-(4-chloro-2-fluoro-5-methoxyphenyl)-5-fluoropyridine-2-carboxylic acid] yielded a melting point of 180 to 181 °C. The pest or weed control at 140 g/ha in series [1] (setting [7]) was found to be 100%. Moreover, the pest or weed control at 140 g/ha in series [2] (setting [8]) came to 100%. Besides, the pest or weed control at 140 g/ha in series [3] (setting [9]) worked out at 100%.

For `COc1c(Cl)ccc(-c2nc(C(=O)O)c(Cl)c(N)c2F)c1F` [Compound 123, 4-Amino-3-chloro-6-(4-chloro-2-fluoro-3-methoxyphenyl)-5-fluoropyridine-2-carboxylic acid], the pest or weed control at 140 g/ha in series [1] (setting [7]), in series [2] (setting [8]), in series [3] (setting [9]), in series [4], in series [5] and in series [6] was 100% throughout.

Turning to `Nc1cc(-c2ccc(F)c(F)c2F)nc(C(=O)O)c1Cl` [Compound 131, 4-Amino-3-chloro-6-(2,3,4-trifluorophenyl)pyridine-2-carboxlic acid], the “% Control AMARE” value in series [1] and in series [4] was 100% throughout. Besides, the “% Control CHEAL” value in series [2] and in series [5] was 100% throughout. Further, the “% Control ABUTH” value amounted to 90% in series [3] and 100% in series [6].
